## O=C(NC1CC1)C(Sc1nc2ccccc2c(=O)n1C1CCCC1)c1ccccc1 (stereo not shown) [EF-1]
  half-life with human liver microsomes: > 6 h
